# “Also recorded” adds a separate entry of the source. Where two headings read alike, the source gives them in different places.
# Assays:
# U87MG cells = test: MTT survival of U87MG cells; assay type: cell-based, human; conditions: 3 days, H-1PV 5 pfU/cell, 25 μM TMZ
# Description: The percentage of surviving U87MG cells [%] 3 days (A) and 6 days (B) after treatment with H-1PV (Virus), combined treatment with H-1PV and TMZ (V+TMZ), and treatment with TMZ only (TMZ) is shown.
# (§1) Initially, the rates of survival of the cell lines used in the study were determined using MTT assays in order to check whether these cell lines are sensitive for H-1PV infection and Temozolomide (TMZ) treatment. In addition, the rates of survival after combined treatment with H-1PV and TMZ were determined. […] The graphs of FIGS. 7-11 depict the results after 3 and 6 days, respectively. After 3 days of treatment distinct effects can already be observed. After 6 days the experiments were terminated since control cells were already confluent. In addition, after 6 days further analyses could not be carried out due to the very low rate of survival (depending on the particular cell line).
# U373MG cells = test: MTT survival of U373MG cells; assay type: cell-based, human; conditions: U373; 6 days; H-1PV 5 pfU/cell, 25 μM TMZ
# Description: The percentage of surviving U373MG cells [%] 3 days (A) and 6 days (B) after treatment with H-1PV (Virus), combined treatment with H-1PV and TMZ (V+TMZ), and treatment with TMZ only (TMZ) is shown.
# as §1
# U343MG cells = test: MTT survival of U343MG cells; assay type: cell-based, human; conditions: U343; 6 days; H-1PV 5 pfU/cell, 25 μM TMZ
# Description: The percentage of surviving U343MG cells [%] 3 days (A) and 6 days (B) after treatment with H-1PV (Virus), combined treatment with H-1PV and TMZ (V+TMZ), and treatment with TMZ only (TMZ) is shown.
# as §1
# MiaPaCa-2 cells = test: MTT cytotoxicity of H-1PV, gemcitabine and their combination, MiaPaCa-2; assay type: cell-based, human
# Description: (§2) Survival was measured using MTT assays performed 72 h after infection, in comparison with mock-treated cultures (100%), and is inversely expressed as cell death rate. The data presented are means from 3 independent experiments carried out in quadruplicates.
# (§3) For cytotoxicity assessment, cells were seeded in 96-well plates at a density of 2×10^3 cells per well and treated as indicated in the Figure Legends. Cell viability was determined by the colorimetric MTT (3-(4,5-dimethylthiazolyl-2)-2,5-diphenyltetrazolium bromide) assay, as recommended by the manufacturer (Sigma, Deisenhofen, Germany).
# (§4) Means and standard deviations (SD) were calculated from triplicate in vitro experiments. […] The isobologram was created from the data obtained for the combination of the two agents. […] CI=1 represents the conservation isobologram and indicates additive effects. CI values below 1 indicate higher than the expected additive effect (synergy).
# Panc-1 cells = test: MTT cytotoxicity of H-1PV, gemcitabine and their combination, Panc-1; assay type: cell-based; conditions: Homo sapiens
# Description: as §2, §3, §4
# T3M-4 cells = test: MTT cytotoxicity of H-1PV, gemcitabine and their combination, T3M-4; assay type: cell-based, human
# Description: as §2, §3, §4
# Drug sensitivity of parental and resistant cells was assessed in both MTT and clonogenic survival assays.
# SU86.86 cells = test: MTT cytotoxicity of H-1PV, gemcitabine and their combination, SU86.86; assay type: cell-based, human
# Description: as §2, §3, §4
# Colo357 cells = test: MTT cytotoxicity of H-1PV, gemcitabine and their combination, Colo357; assay type: cell-based; conditions: Homo sapiens
# Description: as §2, §3, §4
# [1] = tested on: intrapancreatic HA-RPC tumors; test: Survival of PDAC-bearing rats after combined gemcitabine and H-1PV; assay type: in vivo, Lewis rats; conditions: vs. mock treatment or gemcitabine monotherapy
# Description: Animal survival was monitored over a period of 100 days and is presented as Kaplan-Meyer curves, with the median survival and P values indicated below.
# Male Lewis rats (Janvier, Le Genest Saint Isle, France) weighing 180-200 g were used for pancreatic carcinoma implantation. 5.10^6 HA-RPC cells were injected in the pancreatic parenchyma. Tumor progression is confined to the pancreatic tail for the first 3 weeks after implantation, leading to lymph node invasion during the 4th week. Liver metastases appear at weeks 5-6 and death with lung metastasis occurs within weeks 6-9.[17] Animals were kept under conventional conditions (temperature 22±2° C., relative humidity 55±10%, dark-light rhythm of 12 hr) with unrestricted access to a balanced pellet diet and water. Animal experiments were performed according to the French and European Community directives for animal care (number 86/609/EEC of Nov. 24, 1986). […]
# Mean and standard deviations from triplicate in vitro experiments were calculated. Difference in tumour volume, determined in vivo through mCT-scan size measurements, was tested using a one-way analysis of variance followed by a parametric Student's unpaired t test as Bartlett's test indicated homogeneity of variance. […] The survival curves were generated using the Kaplan-Meier method, and the differences between the curves were assessed by the log-rank test. […]
# BxPC3 cells = test: MTT cytotoxicity of H-1PV, gemcitabine and their combination, BxPC3; assay type: cell-based; conditions: Homo sapiens
# Description: as §2, §3, §4
# HA-RPC cells = test: MTT cytotoxicity on rat PDAC cells; assay type: cell-based; conditions: compared with the human PDAC cells
# Description: as §3
# [2] = Toxicological assessment of blood markers in PDAC-bearing rats; assay type: in vivo, Lewis rats; conditions: rat model
# Description: Blood samples were analyzed for: (A) red blood cell (RBC), platelet, and white blood cell (WBC) counts and related parameters; (B) liver (aspartate amino transferase [ASAT], alanine amino transferase [ALAT]) and kidney (Creatinine) markers. The data shown are means with SD bars.
# H-1PV was inoculated intratumorally (i.t.). Blood samples were taken from animal tail vein 2 weeks after the last therapeutic treatment. Toxicological markers were assayed in Strasbourg University Hospital using automated clinical laboratory analysis (Biochemical multiparametric device Biochime ADVIA 160, Siemens, Cergy Pontoise, France).
smiles,measurement,setting,value
"Cn1nnc2c(C(N)=O)ncn2c1=O [TMZ, Temozolomide]",cells lysed / killed,U87MG cells,about 20%
same,cells lysed / cytotoxic effect,U373MG cells,no cytotoxic effect; also recorded: did not result in cell death
same,cells killed,U343MG cells,more than 80%
Nc1ccn([C@@H]2O[C@H](CO)[C@@H](O)C2(F)F)c(=O)n1 [gemcitabine],EC50,"MiaPaCa-2 cells; Homo sapiens, MIA PaCa-2, read-out: EC50 gemcitabine monotherapy (in brackets)",9 ng/mL
same,EC75 comb. 1 gemcitabine,"MiaPaCa-2 cells; MiaPaCa-2, combined with H-1PV MOI 1",18 ng/mL
same,EC75 comb. 2 gemcitabine,"MiaPaCa-2 cells; MiaPaCa-2, combined with H-1PV MOI 10",2.0 ng/mL
same,EC75 mono. gemcitabine,"MiaPaCa-2 cells; MiaPaCa-2, gemcitabine alone, MTT",30 ng/mL
same,EC50,"Panc-1 cells; PANC-1, read-out: EC50 mono. gemcitabine",400 ng/mL
same,EC50,"Panc-1 cells; read-out: EC50 comb. 1 gemcitabine, Panc-1, combined with H-1PV MOI 1",200 ng/mL
same,EC50,"Panc-1 cells; read-out: EC50 comb. 2 gemcitabine, Panc-1, combined with H-1PV MOI 10",60 ng/mL
same,EC50,"T3M-4 cells; Homo sapiens, T3M4, read-out: EC50 gemcitabine monotherapy (in brackets)",1.2 ng/mL
same,EC75 comb. 1 gemcitabine,"T3M-4 cells; T3M-4, combined with H-1PV MOI 1",2.4 ng/mL
same,EC75 comb. 2 gemcitabine,"T3M-4 cells; T3M-4, combined with H-1PV MOI 10",1.5 ng/mL
same,EC75 mono. gemcitabine,"T3M-4 cells; T3M-4, gemcitabine alone, MTT",2.5 ng/mL
same,EC50,"SU86.86 cells; Homo sapiens, SU.86.86, read-out: EC50 gemcitabine monotherapy (in brackets)",2.5 ng/mL
same,EC75 comb. 1 gemcitabine,"SU86.86 cells; SU86.86, combined with H-1PV MOI 1",8.0 ng/mL
same,EC75 comb. 2 gemcitabine,"SU86.86 cells; SU86.86, combined with H-1PV MOI 10",1.3 ng/mL
same,EC75 mono. gemcitabine,"SU86.86 cells; SU86.86, gemcitabine alone, MTT",17 ng/mL
same,EC50,"Colo357 cells; COLO357, read-out: EC50 mono. gemcitabine",1.5 ng/mL
same,EC50,"Colo357 cells; read-out: EC50 comb. 1 gemcitabine, Colo357, combined with H-1PV MOI 1",1.3 ng/mL
same,EC50,"Colo357 cells; read-out: EC50 comb. 2 gemcitabine, Colo357, combined with H-1PV MOI 10",0.6 ng/mL
same,survival of PDAC-bearing rats,[1],transient protection
same,EC50,"BxPC3 cells; BXPC-3, read-out: EC50 comb. 1 gemcitabine, BxPC3, combined with H-1PV MOI 1",20 ng/mL
same,EC50,"BxPC3 cells; BXPC-3, read-out: EC50 comb. 2 gemcitabine, BxPC3, combined with H-1PV MOI 10",7 ng/mL
same,EC50,"BxPC3 cells; BXPC-3, read-out: EC50 mono. gemcitabine",25 ng/mL
same,sensitivity to virus and gemcitabine toxicity,HA-RPC cells,same range of sensitivity
same,"bilirubin, ASAT, and ALAT levels",[2]; 2 weeks after last treatment,elevated
same,reticulocyte and monocyte levels,[2]; 2 weeks after last treatment,drop
same,Creatinine levels,[2]; kidney clearance,remained stable
